Results from paper PMC10558864 (Heliyon, 2023).
Where no end group is shown, it is not given here.

Legend:
[1] = test system: S. typhi^R; format: cell-based, Salmonella typhi; settings: for FIC index of Cefotaxime in combination with the peptide, S. typhi^R / FIC index of Chloramphenicol in combination with the peptide, S. typhi^R / FIC index of Erythromycin in combination with the peptide, S. typhi^R: FIC(A) = MIC of antibiotic in the presence of peptide / MIC of antibiotic alone; for MIC of antibiotic alone, S. typhi: resistant strain, MTT indicator
[2] = test system: S. typhi^N; format: cell-based, Salmonella typhi; settings: micro broth dilution, 37 °C, 24 h, MTT indicator, triplicates
[3] = test system: MRSA; format: cell-based, methicillin-resistant Staphylococcus aureus; settings: micro broth dilution, 37 °C, 24 h, MTT indicator, triplicates
[4] = test system: S. pyogenes; format: cell-based, Streptococcus pyogenes; settings: micro broth dilution, 37 °C, 24 h, MTT indicator, triplicates
[5] = test system: K. pneumoniae; format: cell-based, Klebsiella pneumoniae; settings: micro broth dilution, 37 °C, 24 h, MTT indicator, triplicates
[6] = test system: microorganisms tested (standard and resistant bacterial strains); test: MIC range over the strains tested and therapeutic index; format: cell-based; settings: for MIC range: range over the strains tested, micro broth dilution
[7] = test system: S. typhi^R; format: cell-based, Salmonella typhi; settings: micro broth dilution, 37 °C, 24 h, MTT indicator, triplicates
[8] = test system: human erythrocytes; test: Hemolytic activity; format: cell-based; settings: 1% human erythrocytes in PBS pH 7.40, 37 °C, 1 h, absorbance 570 nm
[9] = test system: E. coli^N (standard strain); format: cell-based, Escherichia coli; settings: micro broth dilution, 37 °C, 24 h, MTT indicator, triplicates
[10] = test system: E. coli^R; format: cell-based, Escherichia coli; settings: for FIC index of Cefotaxime in combination with the peptide, E. coli^R / FIC index of Chloramphenicol in combination with the peptide, E. coli^R / FIC index of Erythromycin in combination with the peptide, E. coli^R: FIC(A) = MIC of antibiotic in the presence of peptide / MIC of antibiotic alone; for MIC of antibiotic alone, E. coli: resistant strain, MTT indicator
[11] = test system: E. coli^R (resistant strain); format: cell-based, Escherichia coli; settings: micro broth dilution, 37 °C, 24 h, MTT indicator, triplicates
[12] = test system: MRSA; format: cell-based, methicillin-resistant Staphylococcus aureus; settings: for FIC index of Cefotaxime in combination with the peptide, MRSA / FIC index of Chloramphenicol in combination with the peptide, MRSA / FIC index of Erythromycin in combination with the peptide, MRSA: FIC(A) = MIC of antibiotic in the presence of peptide / MIC of antibiotic alone; for MIC of antibiotic alone, MRSA: MTT indicator
[13] = test system: S. aureus; format: cell-based, Staphylococcus aureus; settings: micro broth dilution, 37 °C, 24 h, MTT indicator, triplicates
[14] = checkerboard, FIC(A)+FIC(P), 37 °C, 24 h

Molecule	FIC index of Cefotaxime in combination with the peptide, S. typhi^R [1]	FIC index of Chloramphenicol in combination with the peptide, S. typhi^R [1]	FIC index of Erythromycin in combination with the peptide, S. typhi^R [1]	Minimum inhibitory concentration; MIC, S. typhi^N [2] [µM]	Minimum inhibitory concentration; MIC, MRSA [3] [µM]	Minimum inhibitory concentration; MIC, S. pyogenes [4] [µM]	Minimum inhibitory concentration; MIC, K. pneumoniae [5] [µM]	Minimum inhibitory concentration; MIC, S. typhi^R [7] [µM]	MHC (minimum concentration of peptide that causes hemolysis) [8] [mM]	Minimum inhibitory concentration; MIC, E. coli^N [9] [µM]	FIC index of Cefotaxime in combination with the peptide, E. coli^R [10]	FIC index of Chloramphenicol in combination with the peptide, E. coli^R [10]	FIC index of Erythromycin in combination with the peptide, E. coli^R [10]	Minimum inhibitory concentration; MIC, E. coli^R [11] [µM]	FIC index of Cefotaxime in combination with the peptide, MRSA [12]	FIC index of Chloramphenicol in combination with the peptide, MRSA [12]	FIC index of Erythromycin in combination with the peptide, MRSA [12]	Minimum inhibitory concentration; MIC, S. aureus [13] [µM]	MIC of antibiotic alone, S. typhi ([1]; 37 °C, 24 h) [µM]	MIC of antibiotic alone, MRSA ([12]; 37 °C, 24 h) [µM]	further results
GIKGALKSILFAL [BRGP-005]	0.50	1.00	0.50	>1879	>1879	470	>1879	470	0.188	470	0.25	0.25	0.12	235	0.50	0.50	1.00	>1879	–	–	FIC index of peptide in combination with Cefotaxime, S. typhi^R [1, 14]: 0.75; FIC index of peptide in combination with Chloramphenicol, S. typhi^R [1, 14]: 1.032; FIC index of peptide in combination with Erythromycin, S. typhi^R [1, 14]: 0.63; Therapeutic Indices (MHC/MIC) ([6]; range over the MIC range): 0.80 to 0.40; MIC range [6]: 235 to 470 µM; FIC index of peptide in combination with Cefotaxime, E. coli^R [10, 14]: 2.25; FIC index of peptide in combination with Chloramphenicol, E. coli^R [10, 14]: 1.25; FIC index of peptide in combination with Erythromycin, E. coli^R [10, 14]: 0.37
CO/N=C(\C(=O)N[C@@H]1C(=O)N2C(C(=O)O)=C(COC(C)=O)CS[C@H]12)c1csc(N)n1 [Cefotaxime, reference compound]	–	–	–	–	–	–	–	–	–	–	–	–	–	–	–	–	–	–	68.6	34.3	–
AILFLSLGAIKKG [BRGP-001]	0.50	0.50	0.50	>1879	15	>1879	117	>1879	1.127	>1879	–	0.25	0.12	>1879	0.50	0.063	0.54	117	–	–	MIC range [6]: 15 to 117 µM; FIC index of peptide in combination with Chloramphenicol, MRSA [12, 14]: 2.063; FIC index of peptide in combination with Erythromycin, MRSA [12, 14]: 0.81
FLIKSLAGAKGIL [BRGP-002]	1.00	1.00	–	>1879	>1879	>1879	>1879	>1879	1.879	>1879	–	0.50	–	>1879	0.50	1.00	1.00	>1879	–	–	–
CC[C@H]1OC(=O)[C@H](C)[C@@H](O[C@H]2C[C@@](C)(OC)[C@@H](O)[C@H](C)O2)[C@H](C)[C@@H](O[C@@H]2O[C@H](C)C[C@H](N(C)C)[C@H]2O)[C@](C)(O)C[C@@H](C)C(=O)[C@H](C)[C@@H](O)[C@]1(C)O [Erythromycin, reference compound]	–	–	–	–	–	–	–	–	–	–	–	–	–	–	–	–	–	–	21.3	1.3	MIC of antibiotic alone, E. coli ([10]; 37 °C, 24 h): 85.2 µM
O=C(N[C@H](CO)[C@H](O)c1ccc([N+](=O)[O-])cc1)C(Cl)Cl [Chloramphenicol, reference compound]	–	–	–	–	–	–	–	–	–	–	–	–	–	–	–	–	–	–	6	193.4	MIC of antibiotic alone, E. coli ([10]; 37 °C, 24 h): 386.8 µM
KGIKGALSILFAL [BRGP-004]	1.00	1.00	0.50	>1879	>1879	>1879	>1879	>1879	1.503	>1879	0.50	0.50	0.12	>1879	0.50	0.50	0.54	>1879	–	–	–
KGGAIKSLFLILA [BRGP-003]	1.00	1.00	–	>1879	>1879	>1879	>1879	>1879	1.127	>1879	0.50	1.00	1.00	>1879	0.50	0.50	0.54	>1879	–	–	–
PQQYPEMNTRRNW [BRGP-007]	–	–	–	>1454	>1454	>1454	>1454	>1454	1.454	>1454	–	–	–	>1454	–	–	–	>1454	–	–	–
